Laboratory results taken from US11958865B1, “Leucine-rich repeat kinase 2 (LRRK2) inhibitors” (H. Lundbeck A/S, priority 2022, dated 2024).

Experiments:
LRRK2 G2019S = LRRK2 G2019S (Homo sapiens (Human), UniProt Q5S007, G2019S); test: LRRK2 G2019S LanthaScreen TR-FRET kinase activity assay; type: biochemical; details: 250 pM kinase, 1.3 mM ATP, n≥2 tests
Description: (§1) LRRK2 kinase activity was measured using a LanthaScreen kinase activity assay available from Invitrogen (Life Technologies Corporation). […] The phosphorylated peptide is recognized by a terbium-labelled phospho-specific anti-LRRKtide antibody (pLRRKtide antibody), obtainable from Life Technologies Corporation) and, subsequently, the phosphorylated LRRKtide can be quantified by the extent of TR-FRET between the terbium donor and fluorescein acceptor.
(§2) As discussed above, this mutation increases the kinase activity relative to the wild type. The kinase reactions were performed in a 20 μL volume in 384-well plates. The kinase reaction buffer consisted of 50 mM Tris pH 8.5, 0.01% BRIJ-35, 10 mM MgCl2, 1 mM EGTA, and 2 mM DTT.
(§3) The mixture was further incubated for 30 minutes at RT. TR-FRET was measured by excitation of the terbium-donor with 340 nm light and subsequent (delay time […]) measurement of terbium and fluorescein emission at 495 nm and 520 nm, respectively, over a time window of […]. The measurement was repeated 30 times for fluorescein and 30 times for terbium emission with a […] between repeats. TR-FRET measurements were performed on a Biotek Synergy plate. The TR-FRET signal was calculated as the emission-ratio at 520 nm over 495 nm.
(§4) Test compound potency (IC50) was estimated by nonlinear regression using the sigmoidal dose-response (variable slope) using Xlfit 4 (IDBS, Guildford, Surrey, UK, model 205). Were the IC50 could not be determined the % inhibition at the highest tested concentration is given by equation 1. Equation (1): y=(A+((B−A)/(1+((C/x)^D)))) (1)
(§5) where y is the normalized TR-TRET ratio measurement for a given concentration of test compound, x is the concentration of test compound, A is the estimated efficacy (% inhibition) at infinite compound dilution, and B is the maximal efficacy (% inhibition). C is the IC50 value and D is the Hill slope coefficient. IC50 estimates were obtained from independent experiment and the logarithmic average was calculated.

LRRK2 WT [1] = biological target: T1, LRRK2 WT (Homo sapiens (Human), UniProt Q5S007); test: LRRK2 wild-type LanthaScreen TR-FRET kinase activity assay; type: biochemical; details: 1 nM kinase, 1.3 mM ATP, n≥2 tests
Description: as §1, §2, §3, §4, §5

LRRK2 WT [2] = biological target: T1, LRRK2 WT; test: LRRK2 wild-type ADP-Glo kinase assay; type: biochemical; details: read-out: LRRK2 WT ADPGlo IC50
Description: LRRK2 kinase activity was measured using an ADP-Glo kinase assay from Promega Corporation. The assay is a homogeneous luminescence-based assay that measures ADP formed from a kinase reaction. The ADP is converted into ATP, which is used to generate light in a luciferase reaction. The luminescence generated correlates with kinase activity.
The LRRK2 kinase was obtained from Invitrogen (Life Technologies Corporation) and comprises residue 970 to 2527 of the full length human wild-type LRRK2 kinase. The kinase reactions were performed in a 10 μL volume in 384-well plates. The kinase reaction buffer consisted of 50 mM Tris pH 8.5, 0.01% BRIJ-35, 10 mM MgCl2, 1 mM EGTA, and 2 mM DTT.
The reaction mixture (10 μl total volume) was incubated for 3 hours at room temperature (RT, ca. 25° C.), before the reaction was terminated by addition of 10 μl ADP-Glo reagent. The mixture was further incubated for 60 minutes at RT before addition of 20 μl Kinase detection reagent from the ADP-Glo assay kit. Luminescence signal was measure on a BMG Labtech Pherastar FSX multimode microplate reader. The signal integration time was 0.5 s.
Test compound potency (Ki,app) was estimated by nonlinear regression using the tight-binding fit model in GeneData Screener (GeneData AG). In cases where the Ki,app could not be determined, the % inhibition at the highest tested concentration is reported. The tight-binding fit model is given by euquation (2). […] Ki,app is the apparent dissociation constant of the inhibitor. The IC50 can be calculated as given by equation (3). Equation (3): IC50=Ki,app+[E]/2 (3) IC50 estimates were obtained from independent experiment and the logarithmic average was calculated.

[3] = Hepatocyte intrinsic clearance assay; type: in vitro ADME, Human; details: pooled donor, cryopreserved hepatocytes, pH 7.4; human hepatocytes 1×10^6/mL; 0.05 μM; 2 h at 37° C.
Description: Test compounds (final concentration 0.05 μM, 0.05% organic) were incubated for 2 h at 37° C., with shaking, in supplemented Leibovitz L-15 media (pH 7.4) containing commercially sourced, pooled donor, cryopreserved hepatocytes (final concentration 1×10^6 hepatocytes/mL). The CLint reactions (350 μL) were initiated by addition of test compound. Aliquots (25 μL) were taken at 1, 5, 10, 15, 30, 60, 90 and 120 minutes and then protein crashed with ice-cold acetonitrile containing internal standard (150 μL) then centrifuged (1960 g for 20 minutes at 4° C.). Supernatant was diluted (1:4) with deionized water then analyzed by liquid chromatography (LC)-tandem mass spectrometry (MS/MS).

[4] = Hepatic microsomal intrinsic clearance assay; type: in vitro ADME; details: pooled liver microsomes, pH 7.4; liver microsomes 0.5 mg/mL; 1 μM; NADPH; 1 hour at 37° C.; LLOQ 0.36 L/h/kg
How it was run: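 Compounds at 1 μM final were incubated with pooled liver microsomes (0.5 mg/mL) in phosphate buffer pH 7.4 at 37 °C for up to 60 min. Samples taken at 0, 5, 10, 20, 30 and 60 min were quenched with acetonitrile and analysed by LC-MS/MS.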

T1 sequence (Q5S007 970-2527): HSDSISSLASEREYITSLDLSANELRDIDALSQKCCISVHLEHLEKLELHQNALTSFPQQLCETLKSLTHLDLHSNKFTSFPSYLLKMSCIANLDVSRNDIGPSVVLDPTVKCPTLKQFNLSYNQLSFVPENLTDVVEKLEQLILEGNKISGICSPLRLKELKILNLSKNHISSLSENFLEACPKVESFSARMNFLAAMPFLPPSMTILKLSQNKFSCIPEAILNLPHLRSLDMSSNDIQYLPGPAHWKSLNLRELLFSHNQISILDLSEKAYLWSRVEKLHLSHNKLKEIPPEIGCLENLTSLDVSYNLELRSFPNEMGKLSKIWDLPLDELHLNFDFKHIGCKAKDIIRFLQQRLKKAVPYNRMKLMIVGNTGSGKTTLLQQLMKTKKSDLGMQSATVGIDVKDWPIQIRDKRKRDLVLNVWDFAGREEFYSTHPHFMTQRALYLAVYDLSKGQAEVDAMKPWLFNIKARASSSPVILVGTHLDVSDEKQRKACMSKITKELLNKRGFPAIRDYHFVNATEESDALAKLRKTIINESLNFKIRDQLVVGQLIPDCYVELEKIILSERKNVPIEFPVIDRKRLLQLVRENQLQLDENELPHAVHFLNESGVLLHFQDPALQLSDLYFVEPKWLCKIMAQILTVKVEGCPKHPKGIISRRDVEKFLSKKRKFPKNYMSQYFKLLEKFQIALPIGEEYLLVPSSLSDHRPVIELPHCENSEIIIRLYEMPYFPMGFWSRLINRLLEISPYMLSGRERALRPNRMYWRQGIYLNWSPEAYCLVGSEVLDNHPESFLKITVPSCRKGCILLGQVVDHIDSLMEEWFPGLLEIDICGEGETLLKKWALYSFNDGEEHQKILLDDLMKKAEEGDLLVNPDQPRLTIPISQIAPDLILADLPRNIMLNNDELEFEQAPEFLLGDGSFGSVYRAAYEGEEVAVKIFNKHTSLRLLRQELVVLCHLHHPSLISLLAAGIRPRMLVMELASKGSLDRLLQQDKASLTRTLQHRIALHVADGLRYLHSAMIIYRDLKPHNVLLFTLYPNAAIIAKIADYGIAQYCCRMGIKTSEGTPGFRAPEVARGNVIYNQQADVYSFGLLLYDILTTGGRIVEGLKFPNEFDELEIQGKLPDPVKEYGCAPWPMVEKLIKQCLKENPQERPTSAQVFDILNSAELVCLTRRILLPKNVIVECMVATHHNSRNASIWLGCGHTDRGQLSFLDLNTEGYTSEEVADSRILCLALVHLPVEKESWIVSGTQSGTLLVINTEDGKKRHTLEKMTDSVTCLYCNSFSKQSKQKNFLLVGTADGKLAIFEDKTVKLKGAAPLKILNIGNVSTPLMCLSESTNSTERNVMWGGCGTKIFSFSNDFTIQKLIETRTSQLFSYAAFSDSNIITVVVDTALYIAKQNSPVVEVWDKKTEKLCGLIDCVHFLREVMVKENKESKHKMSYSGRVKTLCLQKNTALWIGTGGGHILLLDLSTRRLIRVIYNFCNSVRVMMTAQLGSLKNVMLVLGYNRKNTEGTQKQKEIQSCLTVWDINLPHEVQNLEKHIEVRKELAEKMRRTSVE
LRRK2 G2019S, sequence (Q5S007 970-2527 G2019S): as the sequence (Q5S007 970-2527) above, with G1050S counted along it

IC50 (LRRK2 G2019S): 0.35 nM
IC50 (LRRK2 WT [1]): 0.95 nM
IC50 (LRRK2 WT [2]): 0.49 nM
CLint scaled at 0.05 μM [3]: 17.7 mL/min/kg
CLint scaled at 1 μM [4]: 12.5 mL/min/kg
Compound: [2H]C([2H])([2H])Oc1ncccc1-n1nc2c(c1C)Nc1ncc3c(Cl)nn(c3n1)CCCO2 [Example 24, 8-Chloro-2-(2-(methoxy-d3)pyridin-3-yl)-3-methyl-2,4,12,13-tetrahydro-11H-5,7-(azenometheno)dipyrazolo[3,4-b:5′,1′-g][1]oxa[4,6,8]triazacycloundecine]
